What was measured:
human mTOR enzyme = human mTOR enzyme (Homo sapiens, UniProt P42345); experiment: HTRF mTOR enzyme (kinase) assay; format: biochemical; details: rated class; 5 μM ATP, 0.2 μM GST-S6K; read-out: hMTOR IC50
[1] = tested on: mTORC2 activity: phosphorylated AKT Ser473 (pAKT S473) in PC3 cells; experiment: mTOR target engagement assay, immunofluorescent cell-based, mTORC2 readout; details: Homo sapiens, PC-3, 1.5 h, rated class, 90 min treatment
How it was run: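 Read-out is immunofluorescence intensity, normalized to DMSO-only wells and fitted to a sigmoidal Hill equation for IC50. The mTORC1 arm probes phospho-4E-BP1 Thr37/46 and the mTORC2 arm phospho-AKT Ser473.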

[2] = tested on: mTORC1 activity: phosphorylated 4E-BP1 Thr37/46 (p4E-BP1 Thr37/46) in PC3 cells; experiment: mTOR target engagement assay, immunofluorescent cell-based, mTORC1 readout; details: Homo sapiens, PC-3, 1.5 h, rated class, 90 min treatment, read-out: P4EBP1 IC50
Experimental: The target engagement of mTOR kinase inhibitors was evaluated using an immunofluorescent cell-based assay. In this assay, inhibition of mTORC1 activity was measured by the reduction in the level of phosphorylated 4E-BP1Thr37/46 (p4E-BP1 Thr37/46), and inhibition of mTORC2 activity was measured by the reduction of phosphorylated AKTSer473 (pAKT S473).
PC3 cells (prostate tumor cell-line that contains a mutation in the tumor suppressor PTEN, that promotes the phosphorylation and activation of AKT and 4E-BP1) were used in the immunofluorescence assay. PC3 cells were seeded on 384 well plates (black clear bottom, Matrix #4332) overnight. PC3 cells were then treated with 40 μl of the serially diluted test compounds (in 5% fetal bovine serum, F12 medium containing 0.25% DMSO) for ninety minutes at 37° C. The test compound solution was removed, and the plates were washed gently two times with 25 μl phosphate buffered saline (PBS). The cells were fixed by adding 25 μl of Prefer reagent (from Anatech LTD, Cat#414, a glyoxal fixative for fixing proteins within a cell) for sixty minutes followed by three washes with PBS. 5% Goat serum in PBS/0.3% Triton was used to block non-specific binding (60 minutes).
The primary antibodies targeting pAKT S473 and p4E-BP1 Thr37/46 were diluted into PBS/0.3% Triton and incubated with the cells overnight at 4° C. The antibodies targeting pAKTS473 (Cat#4085, Cell signaling) and p4E-BP1 Thr37/46 (Cat#2855, Cell signaling) were used at a 1:100 dilution. Plates were washed three times with PBS/0.1% Tween 20 before adding the secondary antibody at a 1:200 dilution. (goat anti-rabbit containing a fluorescent label, Alexa Fluor 488, Cat#A11008, Invitrogen) in PBS/0.3% Triton for 60 minutes.
Finally, the plates were washed three times with PBS/0.1% Tween 20 and the fluorescent intensity was read using an Analyst HT from Molecular Devices. The fluorescent intensity values from the serially diluted compound treatment group were analyzed using the Xlfit 4 program ([…]) (Formula 205: Y=Bottom+(Top-Bottom)/(1+(IC50/X)^Hillslope) to generate the IC50 value. Where Top is the maximum signal without Compound (+DMSO only) and Bottom represents maximum inhibition. Y is the fluorescence at some compound concentration. The control used to determine the fluorescent intensities for 100% pAKT S473 or 100% phosphorylated p4E-BP1 Thr37/46 were measured from untreated wells that contained only DMSO, instead of test compound.

Sequence of human mTOR enzyme (P42345 1360-2549 limits assumed): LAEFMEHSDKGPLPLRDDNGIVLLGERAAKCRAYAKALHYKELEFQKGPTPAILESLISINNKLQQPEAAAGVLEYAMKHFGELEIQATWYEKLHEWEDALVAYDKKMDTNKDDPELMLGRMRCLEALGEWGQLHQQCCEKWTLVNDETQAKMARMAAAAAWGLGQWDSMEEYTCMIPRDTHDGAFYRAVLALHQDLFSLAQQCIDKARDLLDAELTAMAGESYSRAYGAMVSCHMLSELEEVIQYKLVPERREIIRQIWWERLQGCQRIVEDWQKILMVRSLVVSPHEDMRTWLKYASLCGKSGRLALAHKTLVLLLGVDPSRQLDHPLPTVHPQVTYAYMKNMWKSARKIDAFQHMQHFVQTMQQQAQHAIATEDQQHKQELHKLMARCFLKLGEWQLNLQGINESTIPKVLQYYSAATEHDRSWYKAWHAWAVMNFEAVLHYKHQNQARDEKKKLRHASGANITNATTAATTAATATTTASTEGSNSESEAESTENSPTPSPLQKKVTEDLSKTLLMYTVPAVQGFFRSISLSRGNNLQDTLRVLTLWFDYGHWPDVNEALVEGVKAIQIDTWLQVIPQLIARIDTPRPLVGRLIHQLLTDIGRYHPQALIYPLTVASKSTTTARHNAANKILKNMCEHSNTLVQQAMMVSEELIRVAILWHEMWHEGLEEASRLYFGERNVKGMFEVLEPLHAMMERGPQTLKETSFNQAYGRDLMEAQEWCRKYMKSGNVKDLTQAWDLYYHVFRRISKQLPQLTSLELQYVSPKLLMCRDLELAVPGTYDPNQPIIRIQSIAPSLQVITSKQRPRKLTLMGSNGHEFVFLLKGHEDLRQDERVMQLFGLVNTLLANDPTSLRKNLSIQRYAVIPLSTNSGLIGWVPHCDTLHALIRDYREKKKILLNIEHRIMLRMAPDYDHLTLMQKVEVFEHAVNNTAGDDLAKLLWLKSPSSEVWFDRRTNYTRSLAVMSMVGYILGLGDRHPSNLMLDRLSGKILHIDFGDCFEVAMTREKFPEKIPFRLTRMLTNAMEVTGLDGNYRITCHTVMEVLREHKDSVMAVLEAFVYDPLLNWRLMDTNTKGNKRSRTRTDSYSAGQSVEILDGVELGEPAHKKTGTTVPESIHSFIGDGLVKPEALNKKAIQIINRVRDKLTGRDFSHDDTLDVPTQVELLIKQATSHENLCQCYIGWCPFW

Structure (SMILES)	IC50 (human mTOR enzyme) [nM]	IC50 [1] [nM]	IC50 [2] [nM]
COCCO[C@]1(C(=O)O)CC[C@@H](c2nc3c(-c4cnc5ccc(F)cc5c4)cnn3c(N)c2S(C)(=O)=O)CC1 [Compound 52, (1R,4R)-4-(7-amino-3-(6-fluoroquinolin-3-yl)-6-(methylsulfonyl)-pyrazolo[1,5-a]-pyrimidin-5-yl)-1-(2-methoxyethoxy)-cyclohexanecarboxylic acid]	1 to 100	100 to 1000	100 to 1000
COCCO[C@]1(C(=O)O)CC[C@@H](c2nc3c(-c4ccc(-c5ccccc5)nc4)cnn3c(N)c2Br)CC1 [Compound 64, (1R,4R)-4-(7-amino-6-bromo-3-(6-phenylpyridin-3-yl)pyrazolo[1,5-a]pyrimidin-5-yl)-1-(2-methoxyethoxy)cyclohexanecarboxylic acid]	1 to 100	100 to 1000	100 to 1000
Nc1c(Br)c([C@H]2CC[C@@](OCCN3CCOCC3)(C(=O)O)CC2)nc2c(-c3cnn(-c4ccccc4)c3)cnn12 [Compound 67, (1R,4R)-4-(7-amino-6-bromo-3-(1-phenyl-1H-pyrazol-4-yl)pyrazolo[1,5-a]pyrimidin-5-yl)-1-(2-morpholinoethoxy) cyclohexanecarboxylic acid]	1 to 100	100 to 1000	100 to 1000
COCCO[C@]1(C(=O)O)CC[C@@H](c2nc3c(-c4ccc(-c5ccc(OC)c(F)c5)nc4)cnn3c(N)c2Br)CC1 [Compound 68, (1R,4R)-4-(7-amino-6-bromo-3-(6-(3-fluoro-4-methoxyphenyl)-pyridin-3-yl)-pyrazolo[1,5-a]pyrimidin-5-yl)-1-(2-methoxyethoxy) cyclohexanecarboxylic acid]	1 to 100	2000 to 5000	2000 to 5000
COCCO[C@]1(C(=O)O)CC[C@@H](c2nc3c(-c4cnn(-c5ccccc5)c4)cnn3c(N)c2C#N)CC1 [Compound 69, (1R,4R)-4-(7-amino-6-cyano-3-(1-phenyl-1H-pyrazol-4-yl)pyrazolo[1,5-a]pyrimidin-5-yl)-1-(2-methoxyethoxy)cyclohexanecarboxylic acid]	1 to 100	1 to 100	1 to 100
COCCO[C@]1(C(=O)NS(C)(=O)=O)CC[C@@H](c2nc3c(-c4cnn(-c5ccccc5)c4)cnn3c(N)c2C(C)=O)CC1 [Compound 70, (1R,4R)-4-(6-acetyl-7-amino-3-(1-phenyl-1H-pyrazol-4-yl)pyrazolo[1,5-a]pyrimidin-5-yl)-1-(2-methoxyethoxy)-N-(methylsulfonyl)cyclohexanecarboxamide]	1 to 100	100 to 1000	100 to 1000
COCCOC1(C(=O)NS(C)(=O)=O)CCC(c2nc3c(-c4cnn(-c5ccccc5)c4)cnn3c(N)c2S(C)(=O)=O)CC1 (stereo not drawn) [Compound 71, 4-(7-amino-6-(methylsulfonyl)-3-(1-phenyl-1H-pyrazol-4-yl)pyrazolo[1,5-a]pyrimidin-5-yl)-1-(2-methoxyethoxy)-N-(methylsulfonyl)cyclohexanecarboxamide]	1 to 100	1000 to 2000	1000 to 2000
Nc1c(Br)c([C@H]2CC[C@@](O)(CC(=O)O)CC2)nc2c(-c3ccc(-c4ccccc4)nc3)cnn12 [Compound 76, 2-((1R,4R)-4-(7-amino-6-bromo-3-(6-phenylpyridin-3-yl)pyrazolo[1,5-a]pyrimidin-5-yl)-1-hydroxycyclohexyl)acetic acid]	1 to 100	100 to 1000	100 to 1000
Nc1c(Br)c([C@H]2CC[C@](O)(CC(=O)O)CC2)nc2c(-c3cnn(-c4ccccc4)c3)cnn12 [Compound 78, 2-((1S,4S)-4-(7-amino-6-bromo-3-(1-phenyl-1H-pyrazol-4-yl)pyrazolo[1,5-a]pyrimidin-5-yl)-1-hydroxycyclohexyl)-acetic acid]	1 to 100	100 to 1000	100 to 1000
COCCO[C@]1(C(=O)NO)CC[C@@H](c2nc3c(-c4cnn(-c5ccccc5)c4)cnn3c(N)c2S(C)(=O)=O)CC1 [Compound 88, (1R,4R)-4-(7-amino-6-(methylsulfonyl)-3-(1-phenyl-1H-pyrazol-4-yl)pyrazolo[1,5-a]pyrimidin-5-yl)-N-hydroxy-1-(2-methoxyethoxy)cyclohexanecarboxamide]	1 to 100	1 to 100	1 to 100
COCCO[C@]1(C(=O)NOC)CC[C@@H](c2nc3c(-c4cnn(-c5ccccc5)c4)cnn3c(N)c2S(C)(=O)=O)CC1 [Compound 89, (1R,4R)-4-(7-amino-6-(methylsulfonyl)-3-(1-phenyl-1H-pyrazol-4-yl)pyrazolo[1,5-a]pyrimidin-5-yl)-N-methoxy-1-(2-methoxyethoxy)-cyclohexane-carboxamide]	1 to 100	1 to 100	1 to 100
CNC(=O)[C@]1(OCCOC)CC[C@H](c2nc3c(-c4cnn(-c5ccccc5)c4)cnn3c(N)c2S(C)(=O)=O)CC1 [Compound 90, (1R,4R)-4-(7-amino-6-(methylsulfonyl)-3-(1-phenyl-1H-pyrazol-4-yl)pyrazolo[1,5-a]pyrimidin-5-yl)-1-(2-methoxyethoxy)-N-methylcyclohexane-carboxamide]	1 to 100	100 to 1000	1000 to 2000

Next, values leading:

IC50 (human mTOR enzyme) [nM]	IC50 [1] [nM]	IC50 [2] [nM]	Structure (SMILES)
1 to 100	100 to 1000	100 to 1000	COCCO[C@]1(C(=O)O)CC[C@@H](c2nc3c(-c4ccc(-c5ccccc5)nc4)cnn3c(N)c2S(C)(=O)=O)CC1 [Compound 44, (1R,4R)-4-(7-amino-6-(methylsulfonyl)-3-(6-phenylpyridin-3-yl)pyrazolo[1,5-a]pyrimidin-5-yl)-1-(2-methoxyethoxy) cyclohexanecarboxylic acid]
1 to 100	5000 to 15000	5000 to 15000	COCCO[C@]1(C(=O)O)CC[C@@H](c2nc3c(-c4cnc(-c5ccccc5)nc4)cnn3c(N)c2S(C)(=O)=O)CC1 [Compound 46, (1R,4R)-4-(7-amino-6-(methylsulfonyl)-3-(2-phenylpyrimidin-5-yl)pyrazolo[1,5-a]pyrimidin-5-yl)-1-(2-methoxyethoxy) cyclohexanecarboxylic acid]
1 to 100	2000 to 5000	2000 to 5000	COCCO[C@]1(C(=O)O)CC[C@@H](c2nc3c(-c4ccc(-c5nccs5)nc4)cnn3c(N)c2S(C)(=O)=O)CC1 [Compound 47, (1R,4R)-4-(7-amino-6-(methylsulfonyl)-3-(6-(thiazol-2-yl)pyridin-3-yl)pyrazolo[1,5-a]pyrimidin-5-yl)-1-(2-methoxyethoxy) cyclohexanecarboxylic acid]
1 to 100	5000 to 15000	5000 to 15000	COCCO[C@]1(C(=O)O)CC[C@@H](c2nc3c(-c4ccc(-c5ccc(O)c(F)c5)nc4)cnn3c(N)c2S(C)(=O)=O)CC1 [Compound 48, (1R,4R)-4-(7-amino-3-(6-(3-fluoro-4-hydroxyphenyl)pyridin-3-yl)-6-(methylsulfonyl)-pyrazolo[1,5-a]-pyrimidin-5-yl)-1-(2-methoxyethoxy)-cyclohexanecarboxylic acid]
1 to 100	100 to 1000	100 to 1000	COCCO[C@]1(C(=O)O)CC[C@@H](c2nc3c(-c4ccc(-c5ccccn5)nc4)cnn3c(N)c2S(C)(=O)=O)CC1 [Compound 50, (1R,4R)-4-(3-(2,2′-bipyridin-5-yl)-7-amino-6-(methylsulfonyl)-pyrazolo[1,5-a]-pyrimidin-5-yl)-1-(2-methoxyethoxy)-cyclohexanecarboxylic acid]
1 to 100	100 to 1000	1000 to 2000	COCCO[C@]1(C(=O)O)CC[C@@H](c2nc3c(-c4cnc(-c5ncc(C)s5)nc4)cnn3c(N)c2S(C)(=O)=O)CC1 [Compound 51, (1R,4R)-4-(7-amino-6-(methylsulfonyl)-3-(2-(5-methylthiazol-2-yl)pyrimidin-5-yl)pyrazolo[1,5-a]pyrimidin-5-yl)-1-(2-methoxyethoxy) cyclohexanecarboxylic acid]
